From US20190127413A1, “Compositions and Methods for Non-Toxic Delivery of Antiprogestins” (Repros Therapeutics Inc., priority 2010, published 2019)
“Also recorded” adds a separate entry of the source.

Legend:
[1] = tested on: progesterone-induced endometrial proliferation; test: Anti-Clauberg study, vaginal versus oral (McPhail index); type: in vivo, rabbits
Description: Another anti-Clauberg study was run in which immature estradiol-primed rabbits were administered progesterone alone (vehicle control) or were co-administered progesterone and three doses of CDB-4124 by either vaginal or oral administration. The inhibition of progesterone-induced endometrial proliferation at each dose was assayed. FIG. 3 illustrates the decrease in the McPhail index following increasing doses of CDB-4124 administered by either route. Maximal inhibition (i.e. a decrease in the McPhail index to 1.5) occurred at 0.2 mg/kg CDB-4124 when administered vaginally, compared to 0.8 mg/kg when administered orally.

[2] = Oral versus vaginal pharmacokinetics in beagles; type: in vivo; details: 25 mg; for metabolism after peak plasma concentration: oral, micronized powder; for metabolism / peak plasma concentration (Cmax): vaginal suppository
Description: Beagles were administered 25 mg of CDB-4124 or CDB-4453 (the monodemethylated metabolite of CDB-4124) formulated as either a micronized powder or a vaginal suppository. […] Moreover, systemic exposure of the drug is much lower when administered locally (compare AUC for CDB-4124 and CDB-4453 when administered vaginally vs. orally).

[3] = tested on: primary cultures of human and animal hepatocytes; test: Metabolism in primary cultures of hepatocytes; type: in vitro ADME; details: primary hepatocyte cultures
Description: (§1) Pharmacokinetic studies performed on participating subjects detected a high Cmax and a Tmax at 1-2 hours following administration. […] Metabolism of CDB-4124 by the liver provides the opportunity for liver damage and greatly reduces the concentration of the antiprogestin before it reaches the systemic circulation. Thus, alternative routes of administration of antiprogestins that avoid first pass metabolism such as, without limitation, intravenous, intramuscular, and sublingual, should allow antiprogestins to be absorbed directly into the systemic circulation and thereby provide a method for treating progestone-dependent conditions while avoiding liver toxicity. Administration routes which avoid first pass metabolism may also require less drug per dose to achieve the same therapeutic benefit relative to oral administration.

[4] = tested on: progesterone-induced endometrial proliferation; test: Anti-Clauberg study, subcutaneous versus oral; type: in vivo, rabbits
From the text: To determine whether the low circulating levels of CDB-4124 when administered locally could have any impact predictive of efficacy, an anti-Clauberg study was run in which immature estradiol-primed rabbits were coadministered progesterone and various doses of CDB-4124 by either subcutaneous or oral administration. At least 3 different highly trained individuals evaluated the rabbit uterus for glandular growth, for complexity and overall progesterone-induced “development”. The inhibition (by percentage) of progesterone-induced endometrial proliferation at each dose was assayed. […] However, maximal inhibition required a 8-fold increase in dosage when administered orally (i.e. 8 mg/kg). Importantly 8 mg/kg corresponds closely to the 50 mg/day dose of CDB-4124 administered to the female subjects described in Example 4.

[5] = Clinical trials of daily oral CDB-4124 (Proellex) capsules: liver toxicity, liver enzymes; type: in vivo, human
Description: The maximum concentrations of CDB-4124 and its mono-demethylated metabolite (CDB-4453) for the 12.5 mg dose were 25% of the 50 mg dose. All liver toxicities resolved in those women that returned for safety follow-ups, including those subjects that developed liver-associated serious adverse effects (SAEs).
To date, over 600 patients, including women with confirmed cases of endometriosis or uterine fibroids, have participated in double blind and open label clinical trials in which patients were administered daily oral capsules containing doses of 12.5 mg, 25 mg or 50 mg CDB-4124 (Proellex) for over one month. Of these patients, about 500 received Proellex and about 130 received a placebo. Of the patients receiving Proellex, about 190 received a dose of 50 mg CDB-4124 per day, about 260 received a dose of 25 mg CDB-4124 per day and about 55 received a dose of 12.5 mg per day.
Liver enzymes were frequently monitored in participating subjects. The liver enzyme level at which the clinical trials would be discontinued was set at an increase in liver aminotransferases greater than, or equal to three times the Upper Limit of Normal (≥3×ULN).
Of the nine subjects with a confirmed increase in liver enzymes ≥3×ULN, seven were severe enough elevations to be reported to the FDA as SAEs. One of these seven subjects had been receiving a dose of 25 mg CDB-4124 per day; the remaining six subjects had been receiving a dose of 50 mg CDB-4124 per day. Liver enzymes ≥3×ULN persisted in five of the nine subjects with a confirmed increase in liver enzymes ≥3×ULN. These five subjects had previously been dosed with the 50 mg dose. One of these subjects is receiving oral medication for treatment of their liver condition. Clinical trials involving CDB-4124 at all doses were voluntarily suspended as a result of these SAEs and were subsequently placed on clinical hold by the United States Food and Drug Administration for safety reasons.

[6] = Pharmacokinetic studies on participating clinical trial subjects, oral CDB-4124; type: in vivo, human; details: for maximum concentration for the 12.5 mg dose as percentage of the 50 mg dose: oral CDB-4124, parent and mono-demethylated metabolite
Description: as §1

[7] = Cmax after vaginal administration extrapolated from beagles to humans; type: in vivo; details: for predicted Cmax for vaginal administration as percentage of the same dose administered orally: humans
Description: The maximum circulating concentrations (Cmax) of CDB-4124 obtained following vaginal administration to beagles were extrapolated to humans for the 12.5 mg, 25 mg and 50 mg doses actually administered during the Phase III clinical studies.

glucocorticoid receptor = molecular target: T1, glucocorticoid receptor (Homo sapiens, UniProt P04150); details: cited from earlier work
T1 sequence (P04150 1-777): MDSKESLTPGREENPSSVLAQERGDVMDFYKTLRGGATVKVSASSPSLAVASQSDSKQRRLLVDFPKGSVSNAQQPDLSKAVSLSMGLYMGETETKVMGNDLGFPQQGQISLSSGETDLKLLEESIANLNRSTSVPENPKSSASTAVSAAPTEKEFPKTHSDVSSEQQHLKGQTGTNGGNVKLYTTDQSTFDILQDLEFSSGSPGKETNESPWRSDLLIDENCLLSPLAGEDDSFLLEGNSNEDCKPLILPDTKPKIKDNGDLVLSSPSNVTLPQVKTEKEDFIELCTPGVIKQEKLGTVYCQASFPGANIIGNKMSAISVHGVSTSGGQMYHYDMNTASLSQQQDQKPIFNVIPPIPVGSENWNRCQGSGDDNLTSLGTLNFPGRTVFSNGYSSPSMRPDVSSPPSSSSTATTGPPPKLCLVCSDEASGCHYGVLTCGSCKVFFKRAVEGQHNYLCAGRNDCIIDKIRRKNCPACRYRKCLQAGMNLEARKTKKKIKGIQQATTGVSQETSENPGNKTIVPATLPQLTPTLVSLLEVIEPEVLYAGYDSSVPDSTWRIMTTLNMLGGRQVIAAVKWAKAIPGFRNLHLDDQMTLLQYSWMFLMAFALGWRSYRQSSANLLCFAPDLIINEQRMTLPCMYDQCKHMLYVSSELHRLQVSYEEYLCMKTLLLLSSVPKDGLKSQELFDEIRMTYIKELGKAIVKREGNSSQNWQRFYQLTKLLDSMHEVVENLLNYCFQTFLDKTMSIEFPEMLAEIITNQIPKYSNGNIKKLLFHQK

COCC(=O)[C@@]1(OC(C)=O)CC[C@H]2[C@@H]3CCC4=CC(=O)CCC4=C3[C@@H](c3ccc(N(C)C)cc3)C[C@@]21C [CDB-4124, 21-methoxy-17α-acetoxy-11β-(4 N, N-dimethylaminophenyl)-19-norpregna-4,9-diene-3,20-dione]
dose at which maximal inhibition occurred ([1]; oral): 0.8 mg/kg
dose at which maximal inhibition occurred ([1]; vaginal): 0.2 mg/kg
McPhail index at maximal inhibition ([1]; vaginal 0.2 mg/kg or oral 0.8 mg/kg): 1.5
systemic exposure (AUC), local (vaginal) versus oral [2]: much lower
metabolism after peak plasma concentration [2]: rapidly metabolized
metabolism [2]: metabolized slowly
peak plasma concentration (Cmax) [2]: relatively low
production of the mono-demethylated metabolite [3]: rapidly produce the mono-demethylated metabolite
dose at which maximal inhibition of progesterone-induced endometrial proliferation was observed ([4]; oral): 8 mg/kg
increase in dosage required for maximal inhibition, oral versus subcutaneous ([4]; rabbit, in vivo): 8 fold
dose at which maximal inhibition of progesterone-induced endometrial proliferation was observed ([4]; subcutaneous): less than 1 mg/kg
subjects with liver enzyme elevation reported as SAE ([5]; 25 mg CDB-4124 per day): One
subjects with liver enzyme elevation reported as SAE ([5]; 50 mg CDB-4124 per day): six
subjects in whom liver enzymes ≥3×ULN persisted ([5]; 50 mg dose): five
subjects with elevations severe enough to be reported to the FDA as SAEs ([5]; all doses): seven
subjects with increase in liver enzymes ≥3×ULN confirmed by repeat test in 48 hours ([5]; all doses): nine
subjects with increase in liver enzymes ≥3×ULN ([5]; all doses, first test): thirteen
adverse liver toxicity signals ([5]; oral, 12.5 mg, versus placebo): no adverse liver toxicity signals different from placebo
frequency and intensity of liver toxicity effects relative to 50 mg/day ([5]; oral, 25 mg/day): significantly lower in frequency and intensity
women exhibiting severe liver toxicity ([5]; oral, 50 mg/day, Phase III clinical studies): 3-4%
liver toxicity on chronic daily administration ([5]; therapeutic oral dosages, patients): exhibit liver toxicity
monodemethylated metabolite detected (first pass metabolism) ([6]; after oral ingestion of CDB-4124): Large quantities; also recorded: Large amounts
Cmax ([6]; following oral administration): high
Tmax ([6]; human, in vivo, following oral administration): 1 to 2 h
maximum concentration for the 12.5 mg dose as percentage of the 50 mg dose [6]: 25%
predicted Cmax for vaginal administration as percentage of the same dose administered orally ([7]; 12.5 mg dose): approximately 6.5%
predicted Cmax for vaginal administration as percentage of the same dose administered orally ([7]; 50 mg dose): approximately 2%
Cmax with 12.5 mg vaginal dose as percentage of that with 50 mg oral dose ([7]; in vivo, po): 2%

CNc1ccc([C@H]2C[C@@]3(C)[C@@H](CC[C@]3(OC(C)=O)C(=O)COC)[C@@H]3CCC4=CC(=O)CCC4=C32)cc1 [CDB-4453, 21-methoxy-17α-acetoxy-11β-(4-N-methylaminophenyl)-19-norpregna-4,9-diene-3,20-dione]
anti-glucocorticoid activity relative to parent CDB-4124 (glucocorticoid receptor): even lower anti-glucocorticoid activity than its parent
systemic exposure (AUC), local (vaginal) versus oral [2]: much lower
metabolism after peak plasma concentration [2]: rapidly metabolized
metabolism [2]: metabolized slowly
peak plasma concentration (Cmax) [2]: relatively low
maximum concentration for the 12.5 mg dose as percentage of the 50 mg dose [6]: 25%
